17 molecules from patent EP4667464A1 (Cyrus Therapeutics Inc., priority 2023, dated 2024) can be followed below.

One experiment has as its target T1, KRAS G12C::SOS1 (Homo sapiens, UniProt Q07889).
T1 construct: purchased CISBIO 64KRASG12PEH
T1 sequence (Q07889 1-1333): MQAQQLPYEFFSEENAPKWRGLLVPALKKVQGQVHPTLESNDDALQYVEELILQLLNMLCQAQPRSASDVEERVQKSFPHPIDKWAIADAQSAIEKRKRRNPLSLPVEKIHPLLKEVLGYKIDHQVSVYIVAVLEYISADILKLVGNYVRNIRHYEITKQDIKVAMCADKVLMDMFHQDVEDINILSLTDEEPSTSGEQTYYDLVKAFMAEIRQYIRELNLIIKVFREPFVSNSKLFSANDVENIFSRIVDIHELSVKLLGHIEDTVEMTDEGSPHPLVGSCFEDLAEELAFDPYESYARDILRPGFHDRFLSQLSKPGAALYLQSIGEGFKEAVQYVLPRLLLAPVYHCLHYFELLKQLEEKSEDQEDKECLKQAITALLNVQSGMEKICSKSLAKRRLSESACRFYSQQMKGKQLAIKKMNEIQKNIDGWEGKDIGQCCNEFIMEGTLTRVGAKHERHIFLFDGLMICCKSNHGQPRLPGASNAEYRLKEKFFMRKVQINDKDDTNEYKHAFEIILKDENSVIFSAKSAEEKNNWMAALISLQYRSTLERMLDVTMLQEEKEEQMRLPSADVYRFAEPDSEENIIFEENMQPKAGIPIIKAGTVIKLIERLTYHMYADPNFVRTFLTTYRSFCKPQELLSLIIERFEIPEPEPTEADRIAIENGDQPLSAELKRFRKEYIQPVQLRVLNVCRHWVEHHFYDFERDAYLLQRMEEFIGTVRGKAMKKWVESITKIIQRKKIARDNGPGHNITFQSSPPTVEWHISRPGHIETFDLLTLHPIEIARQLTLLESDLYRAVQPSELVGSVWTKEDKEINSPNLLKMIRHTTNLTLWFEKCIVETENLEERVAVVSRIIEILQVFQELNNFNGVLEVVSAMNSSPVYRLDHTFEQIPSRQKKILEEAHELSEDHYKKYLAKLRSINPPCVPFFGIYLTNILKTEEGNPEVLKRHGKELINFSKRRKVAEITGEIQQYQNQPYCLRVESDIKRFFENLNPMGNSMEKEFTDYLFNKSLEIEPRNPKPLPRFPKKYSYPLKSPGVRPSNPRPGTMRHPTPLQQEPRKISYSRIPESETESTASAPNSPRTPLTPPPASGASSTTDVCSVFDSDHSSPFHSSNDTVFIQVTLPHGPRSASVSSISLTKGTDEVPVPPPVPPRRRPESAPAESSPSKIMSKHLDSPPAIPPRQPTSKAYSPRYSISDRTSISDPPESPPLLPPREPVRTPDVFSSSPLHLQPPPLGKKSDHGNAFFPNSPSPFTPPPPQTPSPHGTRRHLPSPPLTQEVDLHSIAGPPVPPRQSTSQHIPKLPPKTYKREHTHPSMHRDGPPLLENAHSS
Put plainly: KRAS G12C::SOS1 protein-protein interaction (PPI) inhibition assay (HTRF). The experiment is classed as binding. The method, boiled down:
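Compounds, at eight 3-fold dilutions from 3 µM, were mixed with GTP-loaded Tag1-KRAS G12C, Tag2-SOS1 and a terbium-cryptate donor plus XL665 acceptor antibody pair. After 2 h at room temperature, time-resolved FRET reported the KRAS–SOS1 interaction.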
On the technique in general: TR-FRET usually uses a lanthanide donor and a delayed reading to cut background.

The next experiment has as its target T2, SOS1 (Homo sapiens, UniProt Q07889).
T2 construct: HIS-SOS1cat (160 nM; Cytoskeleton, US); His (N); purchased Cytoskeleton
T2 sequence (Q07889 564-1049 limits assumed): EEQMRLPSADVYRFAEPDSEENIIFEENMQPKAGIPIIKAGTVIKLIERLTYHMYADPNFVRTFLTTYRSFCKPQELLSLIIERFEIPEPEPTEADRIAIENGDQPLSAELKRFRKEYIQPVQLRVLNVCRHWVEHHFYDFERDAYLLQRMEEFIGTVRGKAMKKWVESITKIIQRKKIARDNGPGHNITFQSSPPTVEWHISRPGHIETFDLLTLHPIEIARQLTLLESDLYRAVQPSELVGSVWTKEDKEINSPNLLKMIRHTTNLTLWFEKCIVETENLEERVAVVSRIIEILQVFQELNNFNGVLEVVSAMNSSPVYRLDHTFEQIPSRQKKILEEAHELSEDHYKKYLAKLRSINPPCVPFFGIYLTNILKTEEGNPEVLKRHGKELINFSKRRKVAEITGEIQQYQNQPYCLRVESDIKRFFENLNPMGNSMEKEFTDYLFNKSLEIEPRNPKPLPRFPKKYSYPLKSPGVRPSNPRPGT
The experiment is described as follows: SOS-catalyzed nucleotide exchange assay (HTRF, SOS1-mediated GTP loading of KRAS G12D). The format is biochemical.

The mark [1] stands for this setting: 8 concentrations from 3 µM, three replicates, read-out: KRAS G12C::SOS1 PPI.
Where [2] appears, read: GST-KRAS G12D, HIS-SOS1cat, compound 128 pM to 10 µM, read-out: SOS-catalyzed nucleotide exchange assay.

Like-named read-outs stand apart in the source and are kept apart here.

Take `CCc1cc(C(=O)N[C@H](C)c2cccc(C(F)(F)F)c2F)nn(-c2cncc(-c3cnnn3C)c2)c1=O` [Example 1-66, N-{(R)-1-[2-fluoro-3-(trifluoromethyl)phenyl]ethyl}-5-ethyl-1-[5-(1-methyl-1H-1,2,3-triazol-5-yl)-3-pyridyl]-6-oxo-1,6-dihydropyridazine-3-carboxamide]: the IC50 on KRAS G12C::SOS1 (setting [1]) was < 50 nM; on SOS1 (setting [2]), 50 to 150 nM.
For `C[C@@H](NC(=O)c1ccc(=O)n(-c2cncc(-c3cnnn3C3CC3)c2)c1)c1cccc(C(F)(F)F)c1F` [Example 1-68, 1-[5-(1-cyclopropyl-1H-1,2,3-triazol-5-yl)-3-pyridyl]-N-[(1R)-1-[2-fluoro-3-(trifluoromethyl)phenyl]ethyl]-2-oxo-2H-[1,3'-bipyridine]-5-carboxamide] the same measures were < 50 nM and < 50 nM.
For `C[C@@H](NC(=O)c1cc(C(F)(F)F)c(=O)n(-c2cncc(-c3cnnn3C)c2)n1)c1cccc(C(F)(F)F)c1F` [Example 1-69, N-[(R)-1-[2-fluoro-3-(trifluoromethyl)phenyl]ethyl]-1-[5-(1-methyl-1H-1,2,3-triazol-5-yl)-3-pyridyl]-6-oxo-5-(trifluoromethyl)-pyridazine-3-carboxamide], the IC50 is < 50 nM at KRAS G12C::SOS1 (setting [1]) and 50 to 150 nM on SOS1 (setting [2]).
For `Cc1c([C@@H](C)NC(=O)c2ccc(=O)n(-c3cncc(-c4cnnn4C)c3)n2)cc(N)cc1C(F)(F)F` [Example 2-2, N-[(1R)-1-[5-amino-2-methyl-3-(trifluoromethyl)phenyl]ethyl]-1-[5-(3-methyltriazol-4-yl)-3-pyridyl]-6-oxo-pyridazine-3-carboxamide] the same measures were < 50 nM and < 50 nM.
Consider `C[C@@H](NC(=O)c1cc(C#N)c(=O)n(-c2cncc(-c3cnnn3C)c2)n1)c1cccc(C(F)(F)CO)c1F` [Example 3, 5-cyano-N-[(1R)-1-[3-(1,1-difluoro-2-hydroxy-ethyl)-2-fluorophenyl]ethyl]-1-[5-(3-methyltriazol-4-yl)-3-pyridyl]-6-oxo-pyridazine-3-carboxamide], for which the IC50 against KRAS G12C::SOS1 and at SOS1 was > 150 nM in each case.
Turning to `C[C@@H](NC(=O)c1cc(C#N)c(=O)n(-c2cncc(-c3cnnn3C)c2)n1)c1cccc(C(F)F)c1F` [Example 3-1, 5-cyano-N-[(1R)-1-[3-(difluoromethyl)-2-fluorophenyl]ethyl]-1-[5-(1-methyl-1H-1,2,3-triazol-5-yl)pyridin-3-yl]-6-oxo-1,6-dihydropyridazine-3-carboxamide], the IC50 is > 150 nM at KRAS G12C::SOS1 (setting [1]) and 50 to 150 nM on SOS1 (setting [2]).
For `C[C@@H](NC(=O)c1cc(C#N)c(=O)n(-c2cc(-c3cnnn3C)cnc2F)n1)c1cccc(C(F)(F)CO)c1F` [Example 3-3] the same measures were < 50 nM and < 50 nM.
For `C[C@@H](NC(=O)c1cc(C#N)c(=O)n(-c2cc(-c3cnnn3C3CC3)cnc2F)n1)c1cccc(C(F)(F)F)c1F` [Example 3-4, 5-cyano-N-[(1R)-1-[2-fluoro-3-(trifluoromethyl)phenyl]ethyl]-1-(5-(1-cyclopropyl-1H-1,2,3-triazol-5-yl)-2-fluoropyridin-3-yl)-6-oxo-1,6-dihydropyridazine-3-carboxamide], in that order: 50 to 150 nM and 50 to 150 nM.
Consider `[2H]C([2H])([2H])n1nncc1-c1cnc(F)c(-n2nc(C(=O)N[C@H](C)c3cccc(C(F)(F)F)c3F)cc(C#N)c2=O)c1` [Example 3-5, 5-cyano-N-[(1R)-1-(2-fluoro-3-(trifluoromethyl)phenyl)ethyl]-1-[2-fluoro-5-(1-(methyl-trideuterio)-1H-1,2,3-triazol-5-yl)pyridin-3-yl]-6-oxo-1,6-dihydropyridazine-3-carboxamide], for which the IC50 at KRAS G12C::SOS1 (setting [1]) and on SOS1 (setting [2]) was 50 to 150 nM throughout.
Regarding `C[C@@H](NC(=O)c1ccc(=O)n(-c2cnnc(-c3cnnn3C)c2)n1)c1cccc(C(F)F)c1F` [Example 5, N-[(1R)-1-[2-fluoro-3-(difluoromethyl)phenyl]ethyl]-1-[6-(3-methyltriazol-4-yl)pyridazin-4-yl]-6-oxo-pyridazine-3-carboxamide], the IC50 on KRAS G12C::SOS1 and against SOS1 was > 150 nM in each case.
Turning to `C[C@@H](NC(=O)c1ccc(=O)n(-c2cnc(F)c(-c3cnnn3C)c2)n1)c1cccc(C(F)F)c1F` [Example 6-1, N-{(1R)-1-(3-(difluoromethyl)-2-fluorophenyl)ethyl}-1-(6-fluoro-5-(1-methyl-1H-1,2,3-triazol-5-yl)pyridin-3-yl)-6-oxo-1,6-dihydropyridazine-3-carboxamide], the IC50 is > 150 nM on KRAS G12C::SOS1 (setting [1]) and 50 to 150 nM at SOS1 (setting [2]).
Take `C[C@@H](NC(=O)c1ccc(=O)n(-c2cc(-c3cnnn3C3CC3)cnc2F)n1)c1cccc(C(F)(F)CO)c1F` [Example 6-8]: the IC50 at KRAS G12C::SOS1 and at SOS1 was < 50 nM throughout.
In the case of `C[C@@H](NC(=O)c1ccc(=O)n(-c2cncc(-c3cnnn3[C@@H]3CCNC3)c2)n1)c1cccc(C(F)(F)F)c1F` [Example 6-9, N-{(R)-1-[2-fluoro-3-(trifluoromethyl)phenyl]ethyl}-6-oxo-1-(5-(1-((R)-pyrrolidin-3-yl)-1H-1,2,3-triazol-5-yl)pyridin-3-yl)-1,6-dihydropyridazine-3-carboxamide], the IC50 at KRAS G12C::SOS1 (setting [1]) and on SOS1 (setting [2]) was < 50 nM throughout.
In the case of `Cc1cc(C(=O)N[C@H](C)c2cccc(C(F)(F)COS(=O)(=O)c3ccccn3)c2F)nn(-c2cncc(-c3cnnn3C)c2)c1=O` [Example 8, N-[(R)-1-{3-[1,1-difluoro-2-(2-pyridylsulfonyloxy)ethyl]-2-fluorophenyl}ethyl]-5-methyl-1-[5-(1-methyl-1H-1,2,3-triazol-5-yl)-3-pyridyl]-6-oxo-1,6-dihydropyridazine-3-carboxamide], the IC50 on KRAS G12C::SOS1 (setting [1]) and on SOS1 (setting [2]) was < 50 nM each time.
On to `C[C@@H](NC(=O)c1ccc(=O)n(-c2cncc(-c3cnnn3CCO)c2)n1)c1cccc(C(F)(F)F)c1F` [Example 11, N-{(R)-1-[2-fluoro-3-(trifluoromethyl)phenyl]ethyl}-1-{5-[1-(2-hydroxyethyl)-1H-1,2,3-triazol-5-yl]-3-pyridyl}-6-oxo-1,6-dihydropyridazine-3-carboxamide], for which the IC50 at KRAS G12C::SOS1 (setting [1]) is 50 to 150 nM; on SOS1 (setting [2]), < 50 nM.
For `C[C@@H](NC(=O)c1cc(Cl)c(=O)n(-c2cncc(-c3c(Cl)nnn3C)c2)n1)c1cccc(C(F)F)c1F` [Example 12, N-{(R)-1-[3-(difluoromethyl)-2-fluorophenyl]ethyl}-5-chloro-1-[5-(4-chloro-1-methyl-1H-1,2,3-triazol-5-yl)-3-pyridyl]-6-oxo-1,6-dihydropyridazine-3-carboxamide], in that order: > 150 nM and 50 to 150 nM.
For `C[C@@H](NC(=O)c1ccc(=O)n(-c2cncc(-c3c(Cl)nnn3C)c2)n1)c1cccc(C(F)F)c1F` [Example 13, N-{(R)-1-[3-(difluoromethyl)-2-fluorophenyl]ethyl}-1-[5-(4-chloro-1-methyl-1H-1,2,3-triazol-5-yl)-3-pyridyl]-6-oxo-1,6-dihydropyridazine-3-carboxamide], in that order: > 150 nM and 50 to 150 nM.
